Measurements taken from patent US20230285516A1 (priority 2020, published 2023).
Read-outs that look alike come from different tables or passages of the source.

Columns and labels:
TNF-α [1] = test: TNF-α gene expression in co-cultured tissues (RT-PCR); assay type: cell-based, human; settings: vs control
Text: (§1) FIG. 7. Effect of type I polymerized collagen on the gene expression of pro- and anti-inflammatory cytokines and factors in the tissues of cartilage and synovial tissue co-cultures of patients with rheumatoid arthritis (RA). (A) Quantification of TNF-α, IL-6 and IL-10 gene expression and (B) Quantification of IL-23 and Foxp3 gene expression by RT-PCR in synovial membrane tissues and cartilage co-cultured for 7 days. The bars show the mean±SD of the transcript levels of the samples normalized through the expression of the housekeeping gene GADPH determined by 2ΔΔCt. The data represent the mean±SD of 9 cartilage and synovial co-cultures from RA patients. Each culture was performed in triplicate for each condition. Basal: tissue in basal conditions.
FIG. 8. Effect of type I polymerized collagen on the gene expression of pro- and anti-inflammatory cytokines and factors in the tissues of cartilage and synovial co-cultures of patients with Osteoarthritis (OA). (A) Quantification of IL-1β, INF-α, IL-6 and IL-10 gene expression, (B) IL-23 and Foxp3 by RT-PCR in co-cultured cartilage and synovial membrane tissues for 7 days. The bars show the mean±SD of the transcript levels of the samples normalized through the expression of the housekeeping gene GADPH determined by 2ΔΔCt. The data represent the mean±SD of 8 co-cultures from patients with OA. […]

IL-23 = IL-23 gene expression in co-cultured tissues (RT-PCR); assay type: cell-based, human; settings: co-cultures from patients with RA, vs control
Text: as §1

TNF-α [2] = test: TNF-α tissue expression in cartilage and synovium co-cultures (histochemistry); assay type: cell-based, human; settings: RA or OA co-cultures, 1% type I polymerized collagen, 7 days
Method: (§2) Cartilage and synovium co-cultures were performed from 9 patients with RA and 8 patients with OA who underwent hip or knee replacement (Table 1). Joint tissue was cultured with (a) RPMI (control), (b) 1% type I polymerized collagen, for 7 days. The supernatants and tissues of days 1 and 7 were […] collected. In the culture supernatants the concentration of IL-1β, IL-8, IL-10, IL-12, TNF-α and IFN-γ was quantified by ELISA and the results were normalized with total protein concentration. The expression of IL-1β and TNF-α was evaluated using histochemistry.
FIG. 2. Effect of type I polymerized collagen on TNF-α expression. (A) Cells immunoreactive to TNF-α in the synovial tissue of the co-cultures. (B) Immunoreactive TNF-α+ cells in cartilage from co-cultures. Rheumatoid arthritis (RA): left panel. Osteoarthritis (OA): right panel. Basal: tissue in basal conditions. […] Each culture was performed in triplicate for each condition, of which at least two sections of each of the tissues were analyzed. The results are expressed as the mean±standard error (SEM) of the percentage of immunoreactive cells in 9 co-cultures of patients with RA and 8 with OA. *p≤0.002.

NF-κB = test: Ex vivo NF-κBp65 and IκBα expression in splenocytes, CIA models; set-up: species or system mice; settings: early and long-standing arthritis
Method: We infer that the mechanism of action of type I polymerized collagen could be given through the regulation of the transcription factor NF-κB and AP-1. In particular, NF-κB regulates the expression of pro-inflammatory enzymes, cytokines, chemokines, immunoreceptors, and cell adhesion molecules, as well as apoptosis. In the light of this knowledge, the expression of NF-κBp65 and its inhibitor IκBα in splenocytes were analyzed ex vivo (FIG. 12).
FIG. 12. Effect of type I polymerized collagen in the early (preventive) and long-standing (late or palliative) arthritis model on ex vivo NF-κB and IκB-α expression in splenocytes. (A) Spleen cells from early arthritis model mice at first sacrifice. (B) Splenocytes obtained immediately after the second sacrifice. (C) Spleen cells from long-standing arthritis model mice at first sacrifice. (D) Splenocytes obtained immediately after the second sacrifice. The intracellular levels of NF-κBp65 and IκBα cells were detected by flow cytometry. The results are representative of 6 mice analyzed in each group. The horizontal dotted line represents the average normal values obtained from mice (n=3) without CIA. Data represent mean±SEM. *p<0.05.

SARS-CoV2 (Covid-19) [3] = test system: SARS-CoV2 (Covid-19)
SARS-CoV2 (Covid-19) [4] = test system: SARS-CoV2 (Covid-19); remark: listed apart in the source
dormant cells = settings: Jou I-M 2005; Furuzawa-Carballeda 2003; cited from earlier work
[5] = Adverse events in the mouse study; assay type: in vivo, mice; settings: after injection, throughout the study
Method: There was no evidence of adverse events after injection of placebo or the different treatments throughout the study. The only adverse event observed was pain lasting less than 15 minutes at the injection site.

IL-8 = IL-8 in co-culture supernatants (ELISA); assay type: cell-based, human; settings: tissue co-cultures from RA patients
Method: as §2
(§3) FIG. 5. Effect of type I polymerized collagen on IL-8 expression in supernatants of cartilage and synovial tissue co-cultures from patients with rheumatoid arthritis (RA) or osteoarthritis (OA). The data represent the mean±SD of 9 co-cultures of cartilage and synovium from patients with RA and of 8 co-cultures of patients with OA. Each culture was performed in triplicate for each condition. The results were normalized with the total protein concentration of the supernatant, determined by the Folin-Löwry micromethod. AR: left panel. OA: panel on the right. Basal: tissue in basal conditions.

IL-10 = IL-10 in co-culture supernatants (ELISA); assay type: cell-based, human; settings: RA or OA co-cultures, day 7 vs. day 1 of culture
Method: as §2
as §3, with “6.” for “5.”, “IL-10” for “IL-8”, “Folin-Lowry” for “Folin-Löwry”

[6] = end of treatment and 7-day follow-up
[7] = severe to semi-critical disease

With “collagen-polyvinylpyrrolidone [type I polymerized collagen]” the “gene expression of TNF-α” value (TNF-α [1]; co-cultures from patients with OA) was “negative regulation”, the “transcription of TNF-α gene” value (TNF-α [1]; co-cultures from patients with RA) was “negatively regulated” and the “transcription of IL-23 gene” value (IL-23) was “negatively regulated”. The “tissue expression of TNF-α vs. controls in synovial tissue” value (TNF-α [2]) was “decreased”, the “percentage of NF-kB+ complexes with its inhibitor IκBα+ in splenocytes” value (NF-κB) was “increased to a statistically significant level” and the “fever, changes in heart rate and odynophagia” value (SARS-CoV2 (Covid-19) [3]; after 7 days) was “disappearance”. The “patients in whom cough, myalgia, and loss of taste persisted” value (SARS-CoV2 (Covid-19) [3]; after 7 days) was 40%, the “patients persisting with alterations in respiratory rate, headache, anosmia, and arthralgia” value (SARS-CoV2 (Covid-19) [3]; after 7 days) was 20% and the “patients persisting with dyspnea” value (SARS-CoV2 (Covid-19) [3]; after 7 days) was 60%. The “patients with mild alterations in heart rate, cough and loss of the sense of taste” value (SARS-CoV2 (Covid-19) [3]; day 14, 7 days post-treatment) was 20%, the the other symptoms (SARS-CoV2 (Covid-19) [3]; day 14, 7 days post-treatment) was “disappeared” and the dyspnea and headache (SARS-CoV2 (Covid-19) [3]; [6]) was “disappeared in all patients”. For the same substance, the “oxygen requirement to maintain saturation >90%” value (SARS-CoV2 (Covid-19) [3]; [6]) was “none required oxygen”, the “acute respiratory failure syndrome or hospitalization” value (SARS-CoV2 (Covid-19) [3]; human, in vivo) was “None” and the “complications related to SARS-CoV2 infection or due to the use of collagen-PVP” value (SARS-CoV2 (Covid-19) [3]; human, in vivo) was “No complications”. For the same substance, the death (SARS-CoV2 (Covid-19) [3]; human, in vivo) was “No patient died”, the adverse effects (SARS-CoV2 (Covid-19) [3]; mild to moderate disease) was “No adverse effects were detected, except for pain at the application site” and the “persistence of pain at the application site” value (SARS-CoV2 (Covid-19) [3]; mild to moderate disease) was 5 to 15 min. For the same substance, the clinical improvement (SARS-CoV2 (Covid-19) [3]; patients with Covid-19, intramuscular, all cases) was “In all cases there was a clinical improvement”, the “fever, alterations in heart rate, respiratory rate, headache and arthralgias” value (SARS-CoV2 (Covid-19) [4]; after 7 days) was “disappearance” and the adverse effects (SARS-CoV2 (Covid-19) [4]; [7]) was “No adverse effects were detected, except for pain at the application site”. The “persistence of pain at the application site” value (SARS-CoV2 (Covid-19) [4]; [7]) was 5 to 15 min, the “response of dormant cells” value (dormant cells) was “does not induce any response” and the adverse events [5] was “no adverse effects”. For the same substance, the “concentration of IL-8 in the supernatants of the co-cultures” value (IL-8) was “greatest decrease” and the “increase of IL-10 concentration in the supernatants” value (IL-10) was at least 10 times.
